According to patent US9440956B2, “Indole, indazole and benzimidazole arylamides as P2X3 and P2X2/3 antagonists” (Roche Palo Alto LLC, priority 2010, dated 2016):

Columns and labels:
[1] = target: T1, rat P2X3 receptor (Rattus norvegicus, UniProt P49654); experiment: P2X3 FLIPR (Fluorometric Imaging Plate Reader) assay; format: cell-based; details: CHO-K1 cells transfected with cloned rat P2X3; agonist α,β-meATP 1 μM; Fluo-3 calcium fluorescence
T1 construct: expressed in transfected cells; host or cells: CHO-K1
T1 sequence (P49654 1-397): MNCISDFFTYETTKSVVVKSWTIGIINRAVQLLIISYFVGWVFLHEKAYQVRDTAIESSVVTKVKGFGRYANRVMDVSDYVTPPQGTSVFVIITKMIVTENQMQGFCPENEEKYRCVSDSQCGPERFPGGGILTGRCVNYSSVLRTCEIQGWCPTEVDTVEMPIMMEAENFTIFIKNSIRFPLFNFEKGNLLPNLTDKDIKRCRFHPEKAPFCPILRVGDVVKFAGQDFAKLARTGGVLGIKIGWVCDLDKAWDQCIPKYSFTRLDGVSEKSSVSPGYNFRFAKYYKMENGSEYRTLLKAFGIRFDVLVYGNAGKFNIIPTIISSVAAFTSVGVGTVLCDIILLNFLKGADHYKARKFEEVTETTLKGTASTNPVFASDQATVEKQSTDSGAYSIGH
Description: (§1) P2X3/P2X2/3 FLIPR (Fluorometric Imaging Plate Reader) Assay
(§2) CHO-K1 cells were transfected with cloned rat P2X3 or human P2X2/3 receptor subunits and passaged in flasks. 18-24 hours before the FLIPR experiment, cells were released from their flasks, centrifuged, and resuspended in nutrient medium at 2.5×10^5 cells/ml. The cells were aliquoted into black-walled 96-well plates at a density of 50,000 cells/well and incubated overnight in 5% CO2 at 37° C. On the day of the experiment, cells were washed in FLIPR buffer (calcium- and magnesium-free Hank's balanced salt solution, 10 mM HEPES, 2 mM CaCl2, 2.5 mM probenecid; FB). Each well received 100 μl FB and 100 μl of the fluorescent dye Fluo-3 AM [2 μM final conc.]. After a 1 hour dye loading incubation at 37° C., the cells were washed 4 times with FB, and a final 75 μl/well FB was left in each well.
(§3) Test compounds (dissolved in DMSO at 10 mM and serially diluted with FB) or vehicle were added to each well (25 μl of a 4× solution) and allowed to equilibrate for 20 minutes at room temperature. The plates were then placed in the FLIPR and a baseline fluorescence measurement (excitation at 488 nm and emission at 510-570 nm) was obtained for 10 seconds before a 100 μl/well agonist or vehicle addition. The agonist was a 2× solution of α,β-meATP producing a final concentration of 1 μM (P2X3) or 5 μM (P2X2/3). Fluorescence was measured for an additional 2 minutes at 1 second intervals after agonist addition. A final addition of ionomycin (5 μM, final concentration) was made to each well of the FLIPR test plate to establish cell viability and maximum fluorescence of dye-bound cytosolic calcium. Peak fluorescence in response to the addition of α,β-meATP (in the absence and presence of test compounds) was measured and inhibition curves generated using nonlinear regression. PPADS, a standard P2X antagonist, was used as a positive control.

[2] = target: T2, human P2X2/3 receptor (Homo sapiens, UniProt P56373+Q9UBL9); experiment: P2X2/3 FLIPR (Fluorometric Imaging Plate Reader) assay; format: cell-based; details: CHO-K1 cells transfected with human P2X2/3; agonist α,β-meATP 5 μM; Fluo-3 calcium fluorescence
T2 construct: expressed in transfected cells; host or cells: CHO-K1
T2 sequence (Q9UBL9 1-471): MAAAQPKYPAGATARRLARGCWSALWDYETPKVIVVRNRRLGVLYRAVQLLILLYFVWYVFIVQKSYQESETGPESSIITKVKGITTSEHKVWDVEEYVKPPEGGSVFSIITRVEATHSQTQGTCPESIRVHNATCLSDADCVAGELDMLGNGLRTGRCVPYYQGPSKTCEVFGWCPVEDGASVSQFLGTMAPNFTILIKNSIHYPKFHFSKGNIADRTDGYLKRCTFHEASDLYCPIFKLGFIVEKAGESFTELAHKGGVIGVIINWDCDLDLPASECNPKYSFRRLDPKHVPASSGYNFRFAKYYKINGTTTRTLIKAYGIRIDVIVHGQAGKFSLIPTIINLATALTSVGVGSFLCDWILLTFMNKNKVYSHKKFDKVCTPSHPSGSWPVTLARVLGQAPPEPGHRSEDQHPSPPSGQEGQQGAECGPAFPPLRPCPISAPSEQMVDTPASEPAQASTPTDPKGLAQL
T2 sequence (P56373 1-397): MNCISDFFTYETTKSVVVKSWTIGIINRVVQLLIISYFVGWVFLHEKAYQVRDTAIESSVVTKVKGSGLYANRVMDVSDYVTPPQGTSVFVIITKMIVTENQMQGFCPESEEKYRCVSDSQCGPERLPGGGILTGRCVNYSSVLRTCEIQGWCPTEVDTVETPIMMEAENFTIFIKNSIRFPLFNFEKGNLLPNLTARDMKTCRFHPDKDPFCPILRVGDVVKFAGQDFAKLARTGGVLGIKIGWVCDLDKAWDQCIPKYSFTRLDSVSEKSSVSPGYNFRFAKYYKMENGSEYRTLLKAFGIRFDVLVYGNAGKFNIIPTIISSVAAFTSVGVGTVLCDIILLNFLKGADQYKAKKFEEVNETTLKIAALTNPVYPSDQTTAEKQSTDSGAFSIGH
Description: as §1, §2, §3

| SMILES | pKi P2X3 [1] | pKi P2X2/3 [2] |
| --- | --- | --- |
| Cc1ccc(-c2cc(C(=O)NCc3cnc(C)cn3)cc3c2cnn3-c2ccccc2C)nc1 [Compound 18, 4-(5-Methyl-pyridin-2-yl)-1-o-tolyl-1H-indazole-6-carboxylic acid (5-methyl-pyrazin-2-ylmethyl)-amide] | 8.01 | 7.26 |
| Cc1ccc(-c2cc(C(=O)N[C@@H](C)CO)cc3c2cnn3-c2ccccc2C)nc1 [Compound 19, 4-(5-Methyl-1-pyridin-2-yl)-1-o-tolyl-1H-indazole-6-carboxylic acid ((S)-2-hydroxy-1-methyl-ethyl)-amide] | 7.98 | 6 |
| Cc1ccc(-c2cc(C(=O)N[C@@H](C)CO)cc3c2cnn3-c2ccccc2C(C)C)nc1 [Compound 20, 1-(2-Isopropyl-phenyl)-4-(5-methyl-pyridin-2-yl)-1H-indazole-6-carboxylic acid ((S)-2-hydroxy-1-methyl-ethyl)-amide] | 7.55 | 6.19 |
| Cc1ccc(-c2cc(C(=O)NCc3cnc(C)cn3)cc3c2ccn3CC(C)C)nc1 [Compound 21, 1-Isobutyl-4-(5-methyl-pyridin-2-yl)-1H-indole-6-carboxylic acid (5-methyl-pyrazin-2-ylmethyl)-amide] | 7.17 | 5.92 |
| Cc1ccc(-c2cc(C(=O)NCc3ccc(C)nn3)cc3c2ccn3C(C)C)nc1 [Compound 25, 1-Isopropyl-4-(5-methyl-pyridin-2-yl)-1H-indole-6-carboxylic acid (6-methyl-pyridazin-3-ylmethyl)-amide] | 7.27 | 5.32 |
